Key:
[1] = tested on: TTR; test: TTR editing in primary human hepatocytes transfected with Spy Cas9 mRNA and dgRNAs (Table 9); type: cell-based; details: dgRNA co-transfected with Spy Cas9 mRNA (SEQ ID NO:2)
Outline: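 PHH sequentially lipofected with Spy Cas9 mRNA (100 ng), then crRNA plus tracrRNA (25 nM each) dual-guide lipoplex. Cells harvested 24, 48 or 72 h post-transfection; TTR target amplicons sequenced on Illumina MiSeq, editing given as percent reads with indels or substitutions over total reads.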

[2] = tested on: TTR; test: TTR editing in HUH7 cells transfected with Spy Cas9 mRNA and dgRNAs (Table 5); type: cell-based, human; details: HUH7 cells co-transfected with Spy Cas9 mRNA (SEQ ID NO:2) and dgRNAs
Outline: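 HUH7 cells were transfected sequentially with Spy Cas9 mRNA (100 ng) then crRNA and tracer RNA (25 nM each) by lipofection. Genomic DNA was collected 24, 48 or 72 h later. Target site was PCR-amplified and NGS-sequenced, and percent editing was taken as reads with indels or substitutions over total reads.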

[3] = tested on: off-target genomic sites; test: Off-target oligo insertion based assay in HEK293_Cas9 cells, dgRNAs and sgRNAs (Tables 23, 24); type: cell-based, human; details: Table 23; TTR dgRNAs in HekCas9 cells, oligo insertion based assay
Outline: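 In HEK293 cells constitutively expressing Spy Cas9, crRNA (15 nM) plus trRNA (15 nM), or modified sgRNAs, were lipofected with donor oligo (10 nM). Genomic DNA was collected at 24 h, and oligo-insertion libraries were sequenced on MiSeq/HiSeq to map potential off-target cleavage sites.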

Sequence | Avg % Deletion [1] [%] | Avg % Edit [1] [%] | Avg % Insert [1] [%] | Avg % Deletion [2] [%] | Avg % Edit [2] [%] | Avg % Insert [2] [%] | # Sites (off-target integration sites detected) [3]
ACACAAAUACCAGUCCAGCA (tested as dual guide RNA, chemistry not given here) [CR003339] | 34.23 | 36.43 | 2.27 | 20.13 | 79.97 | 60.55 | 3
ACUGAGGAGGAAUUUGUAGA (tested as dual guide RNA, chemistry not given here) [CR003363] | 4.93 | 16.70 | 11.80 | 23.78 | 41.01 | 17.83 | 4
AGACACCAAAUCUUACUGGA (tested as dual guide RNA, chemistry not given here) [CR003367] | 23.37 | 37.33 | 14.03 | 33.48 | 66.29 | 33.62 | 1
AGCCUUUCUGAACACAUGCA (tested as dual guide RNA, chemistry not given here) [CR003351] | 16.37 | 26.50 | 10.20 | 27.49 | 63.51 | 36.87 | 1
AGGCAGUCCUGCCAUCAAUG (tested as dual guide RNA, chemistry not given here) [CR003348] | 15.80 | 18.00 | 2.30 | 22.71 | 57.14 | 36.08 | 3
AGUCCCUCAUUCCUUGGGAU (tested as dual guide RNA, chemistry not given here) [CR003392] | 0.07 | 2.43 | 2.37 | 26.98 | 28.37 | 1.93 | 0
AGUGAGUCUGGAGAGCUGCA (tested as dual guide RNA, chemistry not given here) [CR003359] | 7.33 | 32.93 | 25.67 | 45.97 | 66.75 | 21.73 | 6
AUACCAGUCCAGCAAGGCAG (tested as dual guide RNA, chemistry not given here) [CR003338] | 2.73 | 36.30 | 33.73 | 67.06 | 75.64 | 10.22 | 2

Reference: patent publication US11795460B2, “Compositions and methods for TTR gene editing and treating ATTR amyloidosis” (Intellia Therapeutics, Inc., priority 2017, dated 2023)
